Experimental data published in US20240150347A1, “INHIBITING CYCLIC AMP-RESPONSIVE ELEMENT-BINDING PROTEIN (CREB) BINDING PROTEIN (CBP)” (FORMATherapeutics,Inc., priority 2020, published 2024).
Where a name gives a salt, the structure may show the parent alone.

Tests used:
[1] = Dynamic vapor sorption (hygroscopicity); format: physicochemical; conditions: relative humidity of up to 80%, dynamic vapor sorption isotherm plots
Excerpt: Dynamic Vapor Sorption (DVS) data were collected with a SMS DVS Intrinsic from Surface Measurement Systems.

[2] = tested on: human kinases and disease-relevant mutant variants; experiment: KINOMEscan screen for kinase inhibition; format: binding
[3] = tested on: panel of 10 bromodomains; experiment: AlphaScreen panel of 10 BRD; format: binding; conditions: 10 BRD of various branches of the bromodomain tree

Row | Compound | water uptake [1] [%] | binding affinity for human kinases and disease-relevant mutant variants [2] | activity against panel of 10 bromodomains [3]
1 | COC(=O)N1c2ccc3c(nc([C@H](O)c4cc(F)ccc4OC)n3[C@@H]3CCC[C@@H](C(=O)O)C3)c2CC[C@@H]1C [type B p-toluenesulfonic acid addition salt] | 2.1 | – | –
2 | COC(=O)N1c2ccc3c(nc([C@H](O)c4cc(F)ccc4OC)n3[C@@H]3CCC[C@@H](C(=O)O)C3)c2CC[C@@H]1C [HCl type A salt, (1R,3R)-3-((S)-2-((R)-(5-fluoro-2-methoxyphenyl)(hydroxy)methyl)-6-(methoxycarbonyl)-7-methyl-6,7,8,9-tetrahydro-3H-imidazo [4,5-f]quinolin-3-yl)cyclohexane-1-carboxylic acid] | 6.3 | – | –
3 | COC(=O)N1c2ccc3c(nc([C@H](O)c4cc(F)ccc4OC)n3[C@@H]3CCC[C@@H](C(=O)O)C3)c2CC[C@@H]1C [Compound 1, (1R,3R)-3-[(7S)-2-[(R)-(5-fluoro-2-methoxyphenyl)(hydroxy)methyl]-6-(methoxycarbonyl)-7-methyl-3H,6H,7H,8H,9H-imidazo[4,5-f]quinolin-3-yl]cyclohexane-1-carboxylic acid] | – | no to low binding affinity | inactive against 8
